# Data from US9006185B2, “Use of cell-permeable peptide inhibitors of the JNK signal transduction pathway for the treatment of various diseases” (Xigen Inflammation Ltd., priority 2008, dated 2015).
# Entries after “also recorded” stand apart in the source; their conditions may differ.
# Key:
# [1] = test system: murine T cells; experiment: PMA & ionomycin-induced cytokine production in murine T cells; type: cell-based
# [2] = test system: murine macrophages
# [3] = test system: endogenous JNK in HepG2 cells; experiment: AlphaScreen, endogenous IL-1 dependent JNK activity in HepG2 cells; type: cell-based; settings: FIG. 3 panel d
# Experimental: HepG2 cells were seeded at 3,000 cells/well the day prior the experiment. Then, increasing concentrations of either interleukin-1 [IL-1 beta v)] or tumor necrosis factor [TNFalpha (•)] (a) were added to activate JNK for 30 minutes. Cells were lysed in 20 mM Hepes, 0.5% Tween pH 7.4 and processed for AlphaScreen JNK. (b) Z′ for the JNK activity induced by 10 ng/ml IL-1 and measured in 384 wells/plate (n=96). (c) Inhibition of endogenous IL-1 beta-induced JNK activity with chemical JNK inhibitors [staurosporin (°) and SP600125 (•)]. (d) Effect of peptidic inhibitors L-TAT-IB1(s) according to SEQ ID NO: 9 [here abbreviated as L-JNKi (ν)) and D-TAT-IB1(s) according to SEQ ID NO: 11 (here abbreviated as D-JNKi (♦)) and JBDs (•) (corresponds to L-JNKI without the TAT sequence)] on IL-1 dependent JNK activity. All panels are representative of three independent experiments (n=3). […]
# Principle: AlphaScreen is a non-radioactive bead-based technology used to study biomolecular interactions in a microplate format. The acronym ALPHA stands for Amplified Luminescence Proximity Homogenous Assay. […]
# Kinase reagents (B-GST-cJun, anti P-cJun antibody and active JNK3) were first diluted in kinase buffer (20 mM Tris-HCl pH 7.6, 10 mM MgCl2, 1 mM DTT, 100 μM Na3VO4, 0.01% Tween-20) and added to wells (15 μl). […] AlphaScreen signal was analyzed directly on the Fusion or En Vision apparatus.
# [4] = test system: hAPP Tg mice; experiment: Plaque load by 6E10 immunohistochemistry and ThioflavinS staining in hAPP Tg mice; type: in vivo
# Experimental: iv) Treatment • Forty female hAPP transgenic mice were treated with either 0.1 mg/kg b.w./every two weeks or 10 mg/kg b.w./every three weeks of the test substance XG-102 (SEQ ID NO: 11) in two different dosages (n=12/group) or treated with the vehicle (n=12) s.c. once every three weeks over four months.
# viii) Evaluation of Brain Morphology • Brain tissues of all Tg animals investigated were handled in exactly the same way to avoid bias due to variation of this procedure. From brain halves of 24 Tg mice (8 of each group) 20 cryo-sections per layer (altogether 5 layers), each 10 μm thick (Leica CM 3050S) were sagittally cut and 5 (one from each layer) were processed and evaluated for quantification of plaque load. The five sagittal layers corresponded with the FIGS. 104 to 105, 107 to 108, 111 to 112, 115 to 116 and 118 to 119 according to the morphology atlas “The Mouse Brain” from Paxinos and Franklin (2nd edition). The first layer was specified by the requirement to include the whole hippocampus with it's regions CA1, CA2, CA3, GDIb and GDmb. Immunoreactivity was quantitatively evaluated in the hippocampus and in the cortex using the monoclonal human Aβ-specific antibody 6E10 (Signet) as well as ThioflavinS staining. Remaining brain hemispheres or tissue not used were saved and stored at JSW CNS until the end of the project. b) Evaluation
# iii) Histology • i1) Measurement of Amyloid Depositions and Plaque Load • For 6E10 immunohistochemistry the following evaluation procedure was used: • aa) Contrasting the image for visualization of slice borders without applying the contrast on the image. • bb) Interactive drawing of the cortical outlines and the following measurement of the cortical area (=region area). • cc) Interactive drawing of the area of interest (AOI), in which stained objects are detected over a certain intensity based threshold level (the same for each image) and above a size of 8 μm^2. • dd) Measurement of the area of each object, the sum of stained area in the AOI as well as the number of objects after a smooth contrasting to enhance signal/noise ratio (the same for each image). • ee) Repetition of aa)-dd) for the hippocampus. • ff) Calculation of the mean plaque size (=“sum area of plaques/number of plaques”), the relative plaque number and area (=“number of plaques/region area” and “sum area of plaques/region area*100”). • gg) Automated data export into an Excel spread sheet, including the parameters “image title, region area, number of plaques, sum of plaque area, relative plaque number, relative plaque area and mean plaque size. A field for remarks was used to record image quality and exclusion criteria, respectively. Exclusion criteria were missing parts of the slice, many wrinkles, dominant flaws or staining inconsistencies (e.g. due to bulges, which can impede the full reaction of the blocking reagent). • hh) Closing the image without saving (to keep raw data raw). c) Results
smiles,measurement,setting,value
CC(C)C[C@@H](NC(=O)[C@@H](Cc1ccccc1)NC(=O)[C@H]1CCCN1C(=O)[C@@H](CCC(N)=O)NC(=O)[C@H](NC(=O)[C@H]1CCCN1C(=O)[C@@H](CCCNC(=N)N)NC(=O)[C@@H](CO)NC(=O)[C@@H](CCC(N)=O)NC(=O)[C@H](N)CC(=O)O)C(C)C)C(=O)N[C@H](CC(N)=O)C(=O)N[C@H](CC(C)C)C(=O)N[C@@H](C(=O)N[C@@H](C(=O)N1CCC[C@@H]1C(=O)N[C@H](CCCNC(=N)N)C(=O)N[C@H](CCCCN)C(=O)N1CCC[C@@H]1C(=O)N[C@H](CCCNC(=N)N)C(=O)N1CCC[C@@H]1C(=O)N1CCC[C@@H]1C(=O)N[C@H](CCCNC(=N)N)C(=O)N[C@H](CCCNC(=N)N)C(=O)N[C@H](CCCNC(=N)N)C(=O)N[C@H](CCC(N)=O)C(=O)N[C@H](CCCNC(=N)N)C(=O)N[C@H](CCCNC(=N)N)C(=O)N[C@H](CCCCN)C(=O)N[C@H](CCCCN)C(=O)N[C@H](CCCNC(=N)N)C(=O)NCC(=O)O)[C@H](C)O)[C@H](C)O [XG-102],PMA & ionomycin-induced TNFa and IFNg production,[1],also inhibits cytokine release in primary lymphoid and myeloid cells
same,cytotoxicity at effective concentrations,[2],non-cytotoxic concentrations
same,"LPS-induced TNFa, IL-6 and Rantes release",[2]; murine macrophages,"reducing LPS-induced TNFa, IL-6 and Rantes release in murine macrophages"
same,inhibition of IL-1 dependent endogenous JNK activity,[3],"effectively inhibits JNK activity, even better than L-TAT-IB1(s)"
same,"mean plaque size (ThioflavinS, hippocampus)",[4]; 0.1 mg/kg,"reduced mean plaque size, however this effect did not reach significance level"
same,cortical 6E10 IR plaque load,[4]; 10 mg/kg,increased versus vehicle
same,ThioflavinS plaque area [%] in the hippocampus,"[4]; mouse, in vivo",significantly reduced the area obtained by plaques in the hippocampus
same,cortical plaque load (ThioflavinS),"[4]; mouse, in vivo",cortical plaque load remained unchanged
same,number of hippocampal ThioflavinS positive plaques,"[4]; p<0.05 for 10 mg/kg, p<0.01 for 0.1 mg/kg",reduced the number of plaques negatively dose-dependent in the hippocampus; also recorded: a negatively dose dependent reduction of the number of hippocampal ThioflavinS positive plaques
